The test system of assay [1] is p53, p21, hdm2, survivin. Description: Immunoblot of p53, p21, hdm2 and survivin levels in cancer cell lines. The assay is classed as cell-based, human. Here is the method:
(§1) Immunoblotting was performed as described with antibodies specific for p53 (sc-126 HRP; Santa Cruz), hdm2 (sc-965; Santa Cruz), p21 (556431; BD Pharmingen), Sp1 (sc-59; Santa Cruz), survivin (sc-10811; Santa Cruz), phospho RNA polymerase II (4735; Cell Signaling), total RNA polymerase II (8WG16; a gift from Dr. Schlegel, University of Illinois at Chicago), α-tubulin (T9026; Sigma), cleaved caspase-3 (9664; Cell Signaling), caspase-9 (9502; Cell Signaling) and β-actin (A5441; Sigma) antibodies.
In order to find small molecule transcriptional inhibitors of p21, we generated LIM1215 colon cancer cells, carrying lacZ under the control of p21 promoter, as a screening system for testing ˜2000 structurally diverse compounds (Diversity Set) obtained from National Cancer Institute (NCI). […] To determine if these effects mediated by ARC were dose-dependent, we treated HCT-116 colon carcinoma cells with different concentrations of ARC.
In order to evaluate the extent to which the ARC-mediated repression of p21, hdm2 and survivin are p53-dependent, a pair of isogenic colon cancer cell lines was employed differing only in their p53 status—HCT-116 wild-type and HCT-116-p53^−/− cells (gift from Dr. Bert Vogelstein).

Assay [2] concerns wild type MRC-5 human fetal lung fibroblasts. Description: Apoptosis and cell cycle assays in wild type MRC-5 fibroblasts. The assay is classed as cell-based. Particulars: for cell cycle profile: 20 μM. As to the method:
as §1
(§2) Apoptosis was detected either by DAPI (4′,6-diamidino-2-phenylindole) staining or by Flow Cytometry after PI (Propidium Iodide) staining. For DAPI staining, all treatments (DMSO or ARC) were done in triplicates in 6-well plates and cells were stained with DAPI and visualized by fluorescent microscopy. Four random fields for each sample were photographed and at least 500 cells per field were counted to estimate apoptosis. The data is represented as mean±Standard deviation (sd).
For Flow Cytometry, cells were fixed in 70% ethanol and stored at −20° C. until further analysis. Equal numbers of fixed cells were then stained with PI solution (0.1% Triton X-100, 0.2 mg/ml DNase free RNase, 0.02 mg/ml propidium iodide) made in PBS for 15 min at 37° C. and analyzed by a flow cytometer.
The ability of ARC to induce apoptosis in wild type and SV40-transformed MRC-5 human fetal lung fibroblasts was evaluated. Twenty-four hours after treatment with ARC, transformed fibroblasts underwent robust apoptosis (around 50% and 70%, respectively, with 5 and 10 μM of ARC) (FIGS. 4A and B). […] The transformed cell types may be more dependent on the survivin levels for their survival than their wild type counterparts and thus the reduction in these levels could be lethal to these cells.
Moreover, the effect of 20 μM ARC treatment on wild type fibroblasts was analyzed and little change was found in the cell cycle profile after 24 hours (data not shown) and the cells undergo G2-arrest after 48 hours (FIG. 4D).

Assay [3] relates to MCF-7 breast cancer cells. Description: Apoptosis assays in MCF-7 breast cancer cells. The assay is classed as cell-based, human. As to the method:
as §1, §2
In order to further characterize ARC with respect to its apoptotic potential, cell lines derived from cancers of different origin were utilized. MCF-7 breast cancer cells underwent apoptosis (around 45% and 55%, respectively, with 10 and 20 μM of ARC) after 24 hours of treatment (FIGS. 5A and 5B). […] To evaluate the extent to which ARC-mediated apoptosis is p53-dependent, an MCF-7 cell line that stably expresses a short hairpin RNA (shRNA) targeting p53 (MCF-7-p53si) was used.

The subject of assay [4] is LIM1215 colon cancer, AGS gastric cancer and HepG2 liver cancer cells. Description: Cleaved caspase-3 immunoblot in cancer cell lines of different origin. As to conditions: 48 hours. The assay is classed as cell-based, human. Here is the method:
as §1

Assay [5] relates to HIV Tat-mediated transcription. Kind of assay: HIV Tat-mediated transcription in HeLa MAGI cells. The assay is classed as cell-based, human immunodeficiency virus (HIV). As to conditions: 18 hours. As to the method: FIG. 10. ARC has antiviral activity against HIV (human immunodeficiency virus) in a cell culture model. HeLa MAGI cells were infected with Adeno-Tat and treated with different amounts of ARC for 18 hours after which, MTT was added to measure cell viability and B-Gal expression was measured by ONPG assay. B-Gal expression is indicative of HIV Tat transactivation ability. Assays were done in quadruplicates.

Assay [6] has as its target T1, P-TEFb (Cdk9/Cyclin T1) (Homo sapiens, UniProt P50750).
T1 construct: gift from Dr. Nekhai (Howard University)
Kind of assay: P-TEFb kinase assay with GST-CTD as substrate. The assay is classed as biochemical. Particulars: 30° C., 1 hour. As to the method:
Purified P-TEFb (Cdk9/Cyclin T1) protein and GST-CTD (GST-tagged C-terminal domain of RNA polymerase II) expression plasmid were gifts from Dr. Nekhai (Howard University). GST-CTD protein was expressed in BL21 E. coli (Stratagene) and purified using a GST protein purification kit (Amersham Biosciences). The kinase assay was performed at 30° C. for 1 hour in the presence of P-TEFb with or without the addition of ARC. The phosphorylation levels of GST-CTD were detected with anti-phospho RNA polymerase II antibody (4735; Cell Signaling).
It is known that DRB and flavopiridol inhibit transcription by blocking the kinase activity of P-TEFb, which in turn leads to decreased phosphorylation of RNA polymerase II C-terminal domain (CTD). To determine if ARC operates by a similar mechanism, a kinase assay was performed with purified P-TEFb using GST-CTD (GST tagged C-terminal domain of RNA polymerase II) as the substrate. […] To evaluate this effect in vivo, HCT-116 cells were treated with ARC for 3 hours and analyzed levels of phospho-RNA polymerase II by immunoblotting. While the total amount of RNA polymerase II remained unchanged, phosphorylation of the RNA polymerase II CTD decreased upon ARC treatment (FIG. 2D), consistent with the in vitro kinase assay.

Where [7] appears, read: cancer cell lines of different origin, 10 μM, 24 hours.

This is an account of results in patent US8207136B2, “Nucleoside compounds and methods of use thereof” (The Board of Trustees of the University of Illinois, priority 2005, dated 2012).

T1 sequence (P50750 whole entry, species assumed): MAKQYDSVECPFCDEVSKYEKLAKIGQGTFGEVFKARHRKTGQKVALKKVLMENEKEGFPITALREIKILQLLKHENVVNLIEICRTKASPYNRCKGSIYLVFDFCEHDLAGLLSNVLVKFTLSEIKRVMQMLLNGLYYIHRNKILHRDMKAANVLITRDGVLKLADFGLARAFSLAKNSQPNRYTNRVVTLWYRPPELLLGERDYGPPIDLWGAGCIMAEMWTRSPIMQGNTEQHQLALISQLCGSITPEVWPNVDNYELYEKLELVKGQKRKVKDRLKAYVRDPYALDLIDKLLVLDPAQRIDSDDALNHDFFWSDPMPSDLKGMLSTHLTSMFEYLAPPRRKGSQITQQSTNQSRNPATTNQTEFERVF
T1 sequence (O60563 whole entry partner, species assumed): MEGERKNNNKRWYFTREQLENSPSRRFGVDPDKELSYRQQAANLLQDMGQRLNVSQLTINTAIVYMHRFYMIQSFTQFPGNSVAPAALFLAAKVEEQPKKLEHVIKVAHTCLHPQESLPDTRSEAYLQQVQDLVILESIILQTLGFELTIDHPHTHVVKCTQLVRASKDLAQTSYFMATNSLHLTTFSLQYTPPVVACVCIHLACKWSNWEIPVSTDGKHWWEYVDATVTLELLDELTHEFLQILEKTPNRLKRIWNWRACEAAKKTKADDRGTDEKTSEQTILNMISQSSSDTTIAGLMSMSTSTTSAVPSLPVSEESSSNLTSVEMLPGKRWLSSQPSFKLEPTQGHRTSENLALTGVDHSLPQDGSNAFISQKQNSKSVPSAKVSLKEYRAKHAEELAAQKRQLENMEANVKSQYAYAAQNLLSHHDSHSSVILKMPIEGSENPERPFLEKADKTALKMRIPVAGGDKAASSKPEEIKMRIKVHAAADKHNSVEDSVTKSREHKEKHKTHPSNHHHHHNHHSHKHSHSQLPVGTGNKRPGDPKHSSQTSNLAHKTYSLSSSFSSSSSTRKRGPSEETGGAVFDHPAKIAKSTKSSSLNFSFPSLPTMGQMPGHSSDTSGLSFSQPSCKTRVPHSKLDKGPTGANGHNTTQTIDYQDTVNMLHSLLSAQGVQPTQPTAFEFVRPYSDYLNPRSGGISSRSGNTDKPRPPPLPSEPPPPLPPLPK

On to `NNc1c(C(N)=O)c2c(N)ncnc2n1[C@@H]1O[C@H](CO)[C@@H](O)[C@H]1O` [ARC, 4-amino-6-hydrazino-7-beta-D-ribofuranosyl-7H-pyrrolo[2,3-d]-pyrimidine-5-carboxamide], for which the “p21, hdm2 and survivin levels, p53 dependence” value in assay [1] (HCT-116-p53+/+ versus HCT-116-p53−/− cells) is given as “repressed irrespective of their p53 status”. For the same molecule, in assay [1] (HCT-116 colon carcinoma cells, increasing amounts, 24 hours), the “p53, p21 and hdm2 levels, dose dependence” value was “increased p53 but simultaneously repressed its target genes p21 and hdm2 in a dose-dependent manner”. The “p53 levels in nuclear extracts” value in assay [1] (MCF-7 cells, ARC alone) was “highly induced”. Also, in assay [1] (setting [7]), the hdm2 levels entry was “downregulate hdm2”. Moreover, the p21 levels entry in assay [1] (setting [7]) was “repress p21 levels”. In addition, in assay [1] (setting [7]), the p53 levels entry is recorded as “increased p53 levels”. The survivin levels result in assay [1] (setting [7]) was “downregulate”. The cell cycle profile result is “little change” in assay [2] (24 hours) and “G2-arrest” in assay [2] (48 hours). In addition, the cell killing entry in assay [2] (10 or 20 μM, 24 hours) was “not susceptible to ARC-mediated cell killing”. Also, the “apoptosis (DAPI staining)” value is “around 45%” in assay [3] (10 μM, 24 hours) and around 55% in assay [3] (20 μM, 24 hours). The “cleavage of caspase-9” value in assay [3] (MCF-7, 24 hours) is reported as “cleavage of caspase-9 upon ARC treatment was observed”; in assay [3] (MCF-7-p53si cells (shRNA targeting p53), 24 hours), “Cleavage of caspase-9 was detected”. In addition, the “cleavage of caspase-3” value was “showed cleavage of caspase-3” in assay [4] (HepG2 with stable knock-down of p53, 20 μM); “cleavage of caspase-3 were detected” in assay [4] (LIM1215, AGS and HepG2 cells, 20 μM). Moreover, in assay [5] (HeLa MAGI cells infected with Adeno-Tat), the “HIV Tat-mediated transcription (B-Gal expression)” value is “efficiently inhibited HIV Tat-mediated transcription in a dose-dependent manner”. Moreover, the “rate of transcription versus cell viability (MTT)” value in assay [5] (HeLa MAGI cells) is recorded as “affected more than the viability of cells”. Further, the “phosphorylation of GST-CTD by P-TEFb” value in assay [6] was “potently decreased the phosphorylation of GST-CTD”.
